From patent US10040781B2, “Tank-binding kinase inhibitor compounds” (Gilead Sciences, Inc., priority 2014, dated 2018) come the findings set out here.

In one test the target is hJAK2 (Homo sapiens (Human), UniProt O60674). Description: hJAK2 LANCE TR-FRET enzymatic assay. Type of test: biochemical. The following applies: read-out: JAK2 IC50. (In TR-FRET formats the signal depends on donor and acceptor labels being close together.)
The target of another test is TBK1 (Homo sapiens (Human), UniProt Q9UHD2). Description: TBK1 TR-FRET enzymatic assay.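 Note: phosphorylation of a biotinylated Ser/Thr peptide by purified full-length recombinant TBK1, read by TR-FRET after 240 min at 25 °C, IC50 is the geometric mean of at least four runs.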
Chain of TBK1 (Q9UHD2 whole entry): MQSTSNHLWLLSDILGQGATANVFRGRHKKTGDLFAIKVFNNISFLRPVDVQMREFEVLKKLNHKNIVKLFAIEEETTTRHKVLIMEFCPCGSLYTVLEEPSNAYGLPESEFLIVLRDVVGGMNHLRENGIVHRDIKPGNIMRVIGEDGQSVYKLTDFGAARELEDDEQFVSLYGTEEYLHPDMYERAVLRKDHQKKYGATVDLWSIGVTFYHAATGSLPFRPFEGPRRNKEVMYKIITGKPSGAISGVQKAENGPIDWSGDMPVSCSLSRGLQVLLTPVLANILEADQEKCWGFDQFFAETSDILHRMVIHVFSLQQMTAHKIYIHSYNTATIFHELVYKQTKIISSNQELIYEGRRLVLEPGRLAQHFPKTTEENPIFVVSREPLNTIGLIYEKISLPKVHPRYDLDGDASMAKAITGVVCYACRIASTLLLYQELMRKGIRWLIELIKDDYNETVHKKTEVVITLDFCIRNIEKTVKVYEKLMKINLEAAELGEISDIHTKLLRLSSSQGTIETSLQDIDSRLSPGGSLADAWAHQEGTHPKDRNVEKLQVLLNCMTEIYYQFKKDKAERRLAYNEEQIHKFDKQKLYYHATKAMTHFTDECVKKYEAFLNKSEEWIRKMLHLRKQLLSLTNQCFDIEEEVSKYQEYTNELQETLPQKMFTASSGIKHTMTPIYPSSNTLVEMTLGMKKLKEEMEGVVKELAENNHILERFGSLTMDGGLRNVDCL
For the next test, the target named is IKKε (Homo sapiens (Human), UniProt Q14164). Description: IKKε TR-FRET enzymatic assay. Type of test: biochemical. Conditions: TR-FRET, 2×Km ATP; geometric mean of minimum four determinations; read-out: IKKe IC50.
Chain of IKKε (Q14164 whole entry): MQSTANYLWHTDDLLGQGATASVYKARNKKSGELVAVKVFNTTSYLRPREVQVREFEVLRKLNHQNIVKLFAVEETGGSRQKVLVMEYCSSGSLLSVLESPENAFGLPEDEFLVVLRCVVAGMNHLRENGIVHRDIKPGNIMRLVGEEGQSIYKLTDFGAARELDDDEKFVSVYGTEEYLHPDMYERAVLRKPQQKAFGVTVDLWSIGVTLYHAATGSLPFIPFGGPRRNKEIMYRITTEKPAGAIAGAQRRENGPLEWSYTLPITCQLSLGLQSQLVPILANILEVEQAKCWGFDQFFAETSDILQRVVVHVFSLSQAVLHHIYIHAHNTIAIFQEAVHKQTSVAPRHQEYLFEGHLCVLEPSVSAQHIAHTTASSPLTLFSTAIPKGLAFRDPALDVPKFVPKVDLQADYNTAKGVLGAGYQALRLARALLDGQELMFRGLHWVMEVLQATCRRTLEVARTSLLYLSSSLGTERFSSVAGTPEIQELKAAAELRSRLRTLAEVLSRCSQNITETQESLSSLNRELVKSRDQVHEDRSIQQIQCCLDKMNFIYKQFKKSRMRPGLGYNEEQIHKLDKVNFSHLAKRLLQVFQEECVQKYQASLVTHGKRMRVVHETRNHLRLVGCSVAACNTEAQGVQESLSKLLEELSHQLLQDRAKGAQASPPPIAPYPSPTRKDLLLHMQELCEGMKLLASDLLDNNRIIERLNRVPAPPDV

In general, IC50 refers to the midpoint of a concentration-inhibition curve.

Chain of hJAK2 (O60674 whole entry): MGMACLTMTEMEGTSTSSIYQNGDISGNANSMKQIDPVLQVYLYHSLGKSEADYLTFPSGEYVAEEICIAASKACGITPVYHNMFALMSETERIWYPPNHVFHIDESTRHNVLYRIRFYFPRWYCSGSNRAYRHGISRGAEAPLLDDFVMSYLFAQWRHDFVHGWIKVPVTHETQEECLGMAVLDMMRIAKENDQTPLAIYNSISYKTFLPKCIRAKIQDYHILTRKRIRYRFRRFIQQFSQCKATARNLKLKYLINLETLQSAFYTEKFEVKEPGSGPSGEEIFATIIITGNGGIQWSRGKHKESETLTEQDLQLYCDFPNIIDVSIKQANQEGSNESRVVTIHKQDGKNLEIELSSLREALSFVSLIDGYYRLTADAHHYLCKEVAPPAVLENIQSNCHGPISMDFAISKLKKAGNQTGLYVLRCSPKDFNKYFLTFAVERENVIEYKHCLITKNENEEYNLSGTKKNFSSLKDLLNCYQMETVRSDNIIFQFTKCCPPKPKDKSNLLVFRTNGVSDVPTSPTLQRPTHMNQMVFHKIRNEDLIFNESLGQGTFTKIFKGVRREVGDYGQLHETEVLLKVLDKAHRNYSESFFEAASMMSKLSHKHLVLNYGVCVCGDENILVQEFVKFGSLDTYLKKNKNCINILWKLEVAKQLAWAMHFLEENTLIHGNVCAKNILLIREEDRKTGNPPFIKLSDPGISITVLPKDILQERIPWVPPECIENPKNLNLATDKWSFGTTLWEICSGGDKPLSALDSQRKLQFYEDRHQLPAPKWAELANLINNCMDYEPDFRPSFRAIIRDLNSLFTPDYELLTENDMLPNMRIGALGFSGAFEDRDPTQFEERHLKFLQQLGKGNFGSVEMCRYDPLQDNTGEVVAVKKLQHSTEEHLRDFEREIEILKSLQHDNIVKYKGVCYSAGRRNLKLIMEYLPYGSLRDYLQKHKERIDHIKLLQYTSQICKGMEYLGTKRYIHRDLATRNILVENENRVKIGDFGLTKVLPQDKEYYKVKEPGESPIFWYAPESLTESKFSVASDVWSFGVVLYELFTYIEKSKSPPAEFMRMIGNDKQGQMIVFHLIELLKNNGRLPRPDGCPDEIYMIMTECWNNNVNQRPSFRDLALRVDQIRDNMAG

For `COc1cc(Nc2ncnc(-c3ccc(O[C@H]4CCN(C(=O)[C@@H]5CCC(=O)N5)C[C@H]4F)c(C#N)c3)n2)ccc1N1CCN(C2COC2)CC1` [Example 544, 2-(((3R,4S)-3-fluoro-1-((S)-5-oxopyrrolidine-2-carbonyl)piperidin-4-yl)oxy)-5-(4-((3-methoxy-4-(4-(oxetan-3-yl)piperazin-1-yl)phenyl)amino)-1,3,5-triazin-2-yl)benzonitrile], the IC50 at hJAK2 worked out at 0.044 µM; on TBK1, 0.002 µM; on IKKε, 0.001 µM.

As to `C[C@H](O)C(=O)N1CC[C@H](Oc2ccc(-c3ncnc(Nc4ccc5c(c4)CNC5)n3)cc2C#N)[C@H](F)C1` [Example 545, 2-(((3R,4S)-3-fluoro-1-((S)-2-hydroxypropanoyl)piperidin-4-yl)oxy)-5-(4-(isoindolin-5-ylamino)-1,3,5-triazin-2-yl)benzonitrile], the values for the IC50 at hJAK2, on TBK1 and on IKKε were 0.659 µM, 0.003 µM and 0.001 µM, respectively.

On to `COCC(=O)N1CC[C@H](Oc2ccc(-c3ncnc(Nc4ccc(N5CCN(C6COC6)CC5)cc4)n3)cc2C#N)[C@H](F)C1` [Example 546, 2-(((3R,4S)-3-fluoro-1-(2-methoxyacetyl)piperidin-4-yl)oxy)-5-(4-((4-(4-(oxetan-3-yl)piperazin-1-yl)phenyl)amino)-1,3,5-triazin-2-yl)benzonitrile], for which the IC50 at hJAK2 came out at 0.492 µM; against TBK1, 0.002 µM; at IKKε, 0.002 µM.

As for `CO[C@@H](C)C(=O)N1CC[C@H](Oc2ccc(-c3ncnc(Nc4ccc(N5CCN(C6COC6)CC5)cc4)n3)cc2C#N)[C@H](F)C1` [Example 547, 2-(((3R,4S)-3-fluoro-1-((S)-2-methoxypropanoyl)piperidin-4-yl)oxy)-5-(4-((4-(4-(oxetan-3-yl)piperazin-1-yl)phenyl)amino)-1,3,5-triazin-2-yl)benzonitrile], the IC50 on hJAK2 was at least 1 µM; against TBK1, 0.011 µM; at IKKε, 0.036 µM.

Consider `N#Cc1cc(-c2ncnc(Nc3ccc(N4CCN(C5COC5)CC4)cc3)n2)ccc1O[C@H]1CCN(C(=O)[C@@H]2CNC(=O)C2)C[C@H]1F` [Example 548, 2-(((3R,4S)-3-fluoro-1-((S)-5-oxopyrrolidine-3-carbonyl)piperidin-4-yl)oxy)-5-(4-((4-(4-(oxetan-3-yl)piperazin-1-yl)phenyl)amino)-1,3,5-triazin-2-yl)benzonitrile], for which the IC50 at hJAK2 turned out to be 0.353 µM; at TBK1 it was 0.021 µM; at IKKε, 0.096 µM.

Take `CS(=O)(=O)CC(=O)N1CC[C@H](Oc2ccc(-c3ncnc(Nc4ccc(N5CCN(C6COC6)CC5)cc4)n3)cc2C#N)[C@H](F)C1` [Example 549, 2-(((3R,4S)-3-fluoro-1-(2-(methylsulfonyl)acetyl)piperidin-4-yl)oxy)-5-(4-((4-(4-(oxetan-3-yl)piperazin-1-yl)phenyl)amino)-1,3,5-triazin-2-yl)benzonitrile]: the IC50 came to 0.179 µM on hJAK2, 0.004 µM at TBK1 and 0.011 µM on IKKε.

For the molecule `N#Cc1cc(-c2ncnc(Nc3ccc(N4CCN(C5COC5)CC4)cc3)n2)ccc1O[C@H]1CCN(C(=O)C2CC(O)C2)C[C@H]1F` (stereo partly drawn) [Example 550, 2-(((3R,4S)-3-fluoro-1-(3-hydroxycyclobutanecarbonyl)piperidin-4-yl)oxy)-5-(4-((4-(4-(oxetan-3-yl)piperazin-1-yl)phenyl)amino)-1,3,5-triazin-2-yl)benzonitrile], the IC50 on hJAK2 worked out at 0.75 µM; against TBK1, 0.011 µM; at IKKε it was 0.036 µM.

For the molecule `N#Cc1cc(-c2ncnc(Nc3ccc(N4CCN(C5COC5)CC4)cc3)n2)ccc1O[C@H]1CCN(C(=O)C2CCNC2=O)C[C@H]1F` (stereo partly drawn) [Example 551, 2-(((3R,4S)-3-fluoro-1-(2-oxopyrrolidine-3-carbonyl)piperidin-4-yl)oxy)-5-(4-((4-(4-(oxetan-3-yl)piperazin-1-yl)phenyl)amino)-1,3,5-triazin-2-yl)benzonitrile], the IC50 at hJAK2 came out at 0.799 µM; against TBK1 it was 0.016 µM; on IKKε it was 0.092 µM.

Consider `N#Cc1cc(-c2ncnc(Nc3ccc(N4CCN(C5COC5)CC4)cc3)n2)ccc1O[C@H]1CCN(C(=O)[C@H]2CNC(=O)C2)C[C@H]1F` [Example 552, 2-(((3R,4S)-3-fluoro-1-((R)-5-oxopyrrolidine-3-carbonyl)piperidin-4-yl)oxy)-5-(4-((4-(4-(oxetan-3-yl)piperazin-1-yl)phenyl)amino)-1,3,5-triazin-2-yl)benzonitrile], for which the IC50 on hJAK2 was found to be 0.562 µM; on TBK1 it was 0.028 µM; at IKKε, 0.174 µM.

Turning to `CC(C)(O)CC(=O)N1CC[C@H](Oc2ccc(-c3ncnc(Nc4ccc(N5CCN(C6COC6)CC5)cc4)n3)cc2C#N)[C@H](F)C1` [Example 553, 2-(((3R,4S)-3-fluoro-1-(3-hydroxy-3-methylbutanoyl)piperidin-4-yl)oxy)-5-(4-((4-(4-(oxetan-3-yl)piperazin-1-yl)phenyl)amino)-1,3,5-triazin-2-yl)benzonitrile], the IC50 at hJAK2 is at least 1 µM; at TBK1 it was 0.038 µM; on IKKε, 0.051 µM.

`C[C@H](O)C(=O)N1CC[C@H](Oc2ccc(-c3ncnc(Nc4ccc(-n5ccnc5)cc4)n3)cc2C#N)[C@H](F)C1` [Example 554, 5-(4-((4-(1H-imidazol-1-yl)phenyl)amino)-1,3,5-triazin-2-yl)-2-(((3R,4S)-3-fluoro-1-((S)-2-hydroxypropanoyl)piperidin-4-yl)oxy)benzonitrile]: the IC50 on hJAK2 was at least 1 µM; at TBK1 it was 0.005 µM; on IKKε, 0.004 µM.

Take `N#Cc1cc(-c2ncnc(Nc3ccc(N4CCOCC4)cc3)n2)ccc1O[C@H]1CCN(C(=O)[C@@H](O)CO)C[C@H]1F` [Example 555, 2-(((3R,4S)-1-((S)-2,3-dihydroxypropanoyl)-3-fluoropiperidin-4-yl)oxy)-5-(4-((4-morpholinophenyl)amino)-1,3,5-triazin-2-yl)benzonitrile]: the IC50 on hJAK2 is 0.732 µM; against TBK1, 0.004 µM; at IKKε, 0.001 µM.

Turning to `N#Cc1cc(-c2ncnc(Nc3ccc(N4CCOCC4)cc3F)n2)ccc1O[C@H]1CCN(C(=O)[C@@H](O)CO)C[C@H]1F` [Example 556, 2-(((3R,4S)-1-((S)-2,3-dihydroxypropanoyl)-3-fluoropiperidin-4-yl)oxy)-5-(4-((2-fluoro-4-morpholinophenyl)amino)-1,3,5-triazin-2-yl)benzonitrile], the IC50 at hJAK2 is at least 1 µM; against TBK1 it was 0.003 µM; at IKKε, 0.005 µM.

Consider `COCC(O)C(=O)N1CC[C@H](Oc2ccc(-c3ncnc(Nc4ccc(N5CCN(C6COC6)CC5)cc4)n3)cc2C#N)[C@H](F)C1` (stereo partly drawn) [Example 557, 2-(((3R,4S)-3-fluoro-1-(2-hydroxy-3-methoxypropanoyl)piperidin-4-yl)oxy)-5-(4-((4-(4-(oxetan-3-yl)piperazin-1-yl)phenyl)amino)-1,3,5-triazin-2-yl)benzonitrile], for which the IC50 on hJAK2 is 0.917 µM; on TBK1, 0.006 µM; at IKKε it was 0.004 µM.

As to `N#Cc1cc(-c2ncnc(Nc3ccc(N4CCN(C5COC5)CC4)cc3)n2)ccc1O[C@H]1CCN(C(=O)c2cnc(N)[nH]2)C[C@H]1F` [Example 559, 2-(((3R,4S)-1-(2-amino-1H-imidazole-5-carbonyl)-3-fluoropiperidin-4-yl)oxy)-5-(4-((4-(4-(oxetan-3-yl)piperazin-1-yl)phenyl)amino)-1,3,5-triazin-2-yl)benzonitrile], the IC50 turned out to be 0.083 µM on hJAK2, 0.005 µM at TBK1 and 0.002 µM at IKKε.

`COc1cc(Nc2ncnc(-c3ccc(O[C@H]4CCN(C(=O)CO)CC4(F)F)c(C#N)c3)n2)ccc1N1CCN(C2COC2)CC1` [Example 560, (S)-2-((3,3-difluoro-1-(2-hydroxyacetyl)piperidin-4-yl)oxy)-5-(4-((3-methoxy-4-(4-(oxetan-3-yl)piperazin-1-yl)phenyl)amino)-1,3,5-triazin-2-yl)benzonitrile]: the figures for the half-inhibitory concentration (IC50) at hJAK2, against TBK1 and at IKKε were 0.018 µM, 0.002 µM and 0.001 µM, respectively.

Regarding `COc1cc(Nc2ncnc(-c3ccc(O[C@H]4CCN(C(=O)[C@H](C)O)CC4(F)F)c(C#N)c3)n2)ccc1N1CCN(C2COC2)CC1` [Example 561, 2-(((S)-3,3-difluoro-1-((S)-2-hydroxypropanoyl)piperidin-4-yl)oxy)-5-(4-((3-methoxy-4-(4-(oxetan-3-yl)piperazin-1-yl)phenyl)amino)-1,3,5-triazin-2-yl)benzonitrile], the values for the IC50 at hJAK2, at TBK1 and at IKKε were 0.068 µM, 0.002 µM and 0.001 µM, respectively.

In the case of `COc1cc(Nc2ncnc(-c3ccc(O[C@H]4CCN(C(=O)CCO)C[C@H]4F)c(C#N)c3)n2)ccc1N1CCN(C2COC2)CC1` [Example 562, 2-(((3R,4S)-3-fluoro-1-(3-hydroxypropanoyl)piperidin-4-yl)oxy)-5-(4-((3-methoxy-4-(4-(oxetan-3-yl)piperazin-1-yl)phenyl)amino)-1,3,5-triazin-2-yl)benzonitrile], the figures for the IC50 at hJAK2, against TBK1 and at IKKε were 0.11 µM, 0.003 µM and 0.006 µM, respectively.

`Cc1ncsc1Nc1ncnc(-c2ccc(O[C@H]3CCN(C(=O)CO)C[C@H]3F)c(C#N)c2)n1` [Example 563, 2-(((3R,4S)-3-fluoro-1-(2-hydroxyacetyl)piperidin-4-yl)oxy)-5-(4-((4-methylthiazol-5-yl)amino)-1,3,5-triazin-2-yl)benzonitrile]: the IC50 on hJAK2 was at least 1 µM; against TBK1 it was 0.005 µM; on IKKε it was 0.003 µM.

On to `C[C@H](O)C(=O)N1CC[C@H](Oc2ccc(-c3ncnc(Nc4cn(C)nc4CO)n3)cc2C#N)[C@H](F)C1` [Example 564, 2-(((3R,4S)-3-fluoro-1-((S)-2-hydroxyproanoyl)piperidin-4-yl)oxy)-5-(4-((3-(hydroxymethyl)-1-methyl-1H-pyrazol-4-yl)amino)-1,3,5-triazin-2-yl)benzonitrile], for which the values for the IC50 on hJAK2, at TBK1 and at IKKε were at least 1 µM, 0.092 µM and 0.109 µM, respectively.
